Reference: US11198869B2, “Angelman syndrome antisense treatment” (The Texas A&M University System, priority 2017, dated 2021)
Like-named read-outs stand apart in the source and are kept apart here.

Columns and labels:
Assay type in all cases: cell-based, human
UBE3A-AS [1] = assay: UBE3A-AS steady state RNA (qRT-PCR) in glutamatergic iPSC-derived neurons; details: for 30 μM (Mean), normalized UBE3A-AS RNA level relative to vehicle / Emax Estimate (normalized UBE3A-AS RNA level relative to vehicle): 14 DIV to 20 DIV
Description: ASO-4 and ASO-6.1 were also examined in glutamatergic iPSC-derived neurons. Glutamatergic iPSC-derived neurons were treated at 14 DIV with a 10-point ½ log dose response curve of ASO-4 and ASO-6.1 [1 nM, 3 nM, 10 nM, 30 nM, 100 nM, 300 nM, 1 μM, 3 μM, 10 μM, and 30 μM (n=3)]. At 20 DIV, the IC50 and Emax of each ASO was estimated as described above (FIG. 5E-F and Table 15).
GABAergic and glutamatergic induced pluripotent stem cell (iPSC) derived neural precursor cells (NRC-100-010-001 and GNC-301-030-001, Cellular Dynamics International, Madison Wis.) were differentiated into neurons according to the manufactures protocol. Briefly, neural precursor cells were thawed and resuspended in chemically defined medium and added to sterile-culture plates coated with poly-D-lysine and laminin. The medium was replaced 24 hr after plating and then one-half of the medium was replaced every 3-5 days afterwards.
For cultured iPSC-derived neurons, RNA isolation and cDNA synthesis were performed using the Cell-to-CT kit (Thermo Fisher Scientific) in a lysate volume of 55 μl.
The steady state RNA levels of target transcripts were measured using TaqMan quantitative reverse-transcription PCR (qRT-PCR) assays. Total reaction volume was 10 uL, including 2 μl of cDNA, 1× Gene Expression Master mix (4369016, Thermo Fisher Scientific, Waltham, Mass.), and 1× TaqMan primer assay (Thermo Fisher Scientific). Cycling conditions were 2 minutes at 50° C., 10 minutes at 95° C., and 40 cycles of 15 seconds at 95° C. and 1 minute at 60° C., with readings taken at the 60° C. step of every cycle. Reactions were run on a BIO-RAD T1000 CFX96 thermocycler (Bio-Rad Laboratories, Hercules Calif.), with internal control (PPIA, Hs99999904_m1, Thermo Fisher Scientific) and target [UBE3A-AS, Hs01372957_m1; SNORD116-11, Hs04275268_gH; SNORD115, Hs04275288_gH; IPW, Hs03455409_s1; SNORD109A/B, AP47WVR (Thermo Fisher Scientific); UBE3A: forward […] (SEQ ID NO:500); reverse: […] (SEQ ID NO:501); and, probe: […] (SEQ ID NO:502)] reactions performed together. Data was retrieved and analyzed with the BIORAD CFX Maestro software (Bio-Rad Laboratories). Samples with internal control Cq values ≥30 were filtered. Quality of data was visually inspected to identify discrepancies between technical and/or plate replicates. Measurements for inferential statistics and descriptive statistics consist of ΔΔCq values (2^−ΔΔCq=2^−(Cq[target]−Cq[internal control])−(Cq[target]−Cq[internal control])).

UBE3A-AS [2] = assay: RNA-sequencing of Angelman syndrome iPSC neurons: UBE3A-AS; details: 30 μM; RNA-seq; relative to vehicle
Description: (§1) RNA was isolated using Qiagen RNAeasy Plus (74136, Qiagen, Hilden, Germany). RNA concentration was determined using Qubit Fluorometric Quantitation (Thermo Fisher Scientific) and RNA quality was assessed using a 4200 Agilent TapeStation (Agilent, Santa Clara, Calif.). RNA-sequencing libraries were generated using the Illumina TruSeq Stranded Total RNA kit (20020597, Illumina, Inc., San Diego, Calif.) according to the manufacturer's protocol. 75 base-pair paired-end sequencing was performed using a NextSeq 500 (IIlumina, San Diego, Calif.) at the Texas A&M Institute for Genome Sciences and Society Genomics core. Raw sequencing reads were processed using CASAVA. The resulting FASTQ sequences were examined using FASTQC. […]
(§2) To determine whether ASO-4.4.PS.L and ASO-6.1.PO-1.O affect the levels of RNA transcripts encoded by the PWS polycistronic transcript, RNA-sequencing was performed on AS iPS cells treated with each ASO and the steady state RNA levels of SNURF, SNRPN, the SNORD116 host-gene transcript (SNHG116), the SNORD116 snoRNAs, IPW, the SNORD115 host-gene transcript (SNHG115), the SNORD115 snoRNAs, and UBE3A-AS were quantified. UBE3A steady state RNA levels were also measured. […]

SNORD115 snoRNAs = assay: RNA-sequencing of Angelman syndrome iPSC neurons: SNORD115 snoRNAs; details: 30 μM; six days post-treatment; RNA-seq
Description: as §1, §2

[3] = parallel model, 4 Parameter logistic, read-out: IC50 (M), UBE3A-AS
[4] = treated 14 DIV, RNA 20 DIV, 10-point dose curve, full model, 4-parameter logistic (Hill), read-out: IC50 Estimate, UBE3A-AS

Row | IC50 (UBE3A-AS [1]; [3]) [M] | IC50 (UBE3A-AS [1]; [4]) [M] | Substance | 30 μM (Mean), normalized UBE3A-AS RNA level relative to vehicle (UBE3A-AS [1]) | Emax Estimate (normalized UBE3A-AS RNA level relative to vehicle) (UBE3A-AS [1]; 4-parameter logistic (Hill)) | Relative Potency (UBE3A-AS [1]; parallel model, relative to ASO-4 = 1) | effect on UBE3A-AS RNA levels (UBE3A-AS [2]) [fold change] | Difference, SNORD115 RNA level relative to vehicle (SNORD115 snoRNAs)
1 | 7.8e-07 | 2.44e-07 | C^O*U^O*G^O*G^O*t*g*t*c*a*a*c*a*a*g*C^O*C^O*A^O*A^O [ASO-6.1] | 0.04 | −0.27 | – | – | –
2 | 3.06e-06 | 0.000121 | U^O*A^O*G^O*A^O*A^O*t*g*g*c*a*c*a*t*c*t*C^O*U^O*U^O*G^O*G^O [ASO-4] | 0.17 | −1.45 | 1 | – | –
3 | – | – | C^O*U^O*G^O*G^O-t*g*t*c*a*a*c*a*a*g-C^O*C^O*A^O*A^o [ASO-6.1.PO-1.O] | – | – | – | −2.8 | 0.24
4 | – | – | A^L*G^L*A^L*a*t*g*g*c*a*c*a*t*c*t*5mC^L*T^L*T^L*G^L (NNNATGGCACATCTNNNN; LNA gapmer, PS, 5-methylcytosine, chemistry not fully specified) [ASO-4.4.PS.L] | – | – | – | −6.1 | −0.26
